The source of these data is US11447466B2, “Substituted indole compounds useful as inhibitors of TLR7/8/9” (BRISTOL-MYERS SQUIBB COMPANY, priority 2017, dated 2022).

What all share (type): cell-based
The target in one test is T1, human TLR7 (Homo sapiens, UniProt Q9NYK1).
T1 construct: host or cells: HEK-Blue cells
T1 sequence (Q9NYK1 27-1049): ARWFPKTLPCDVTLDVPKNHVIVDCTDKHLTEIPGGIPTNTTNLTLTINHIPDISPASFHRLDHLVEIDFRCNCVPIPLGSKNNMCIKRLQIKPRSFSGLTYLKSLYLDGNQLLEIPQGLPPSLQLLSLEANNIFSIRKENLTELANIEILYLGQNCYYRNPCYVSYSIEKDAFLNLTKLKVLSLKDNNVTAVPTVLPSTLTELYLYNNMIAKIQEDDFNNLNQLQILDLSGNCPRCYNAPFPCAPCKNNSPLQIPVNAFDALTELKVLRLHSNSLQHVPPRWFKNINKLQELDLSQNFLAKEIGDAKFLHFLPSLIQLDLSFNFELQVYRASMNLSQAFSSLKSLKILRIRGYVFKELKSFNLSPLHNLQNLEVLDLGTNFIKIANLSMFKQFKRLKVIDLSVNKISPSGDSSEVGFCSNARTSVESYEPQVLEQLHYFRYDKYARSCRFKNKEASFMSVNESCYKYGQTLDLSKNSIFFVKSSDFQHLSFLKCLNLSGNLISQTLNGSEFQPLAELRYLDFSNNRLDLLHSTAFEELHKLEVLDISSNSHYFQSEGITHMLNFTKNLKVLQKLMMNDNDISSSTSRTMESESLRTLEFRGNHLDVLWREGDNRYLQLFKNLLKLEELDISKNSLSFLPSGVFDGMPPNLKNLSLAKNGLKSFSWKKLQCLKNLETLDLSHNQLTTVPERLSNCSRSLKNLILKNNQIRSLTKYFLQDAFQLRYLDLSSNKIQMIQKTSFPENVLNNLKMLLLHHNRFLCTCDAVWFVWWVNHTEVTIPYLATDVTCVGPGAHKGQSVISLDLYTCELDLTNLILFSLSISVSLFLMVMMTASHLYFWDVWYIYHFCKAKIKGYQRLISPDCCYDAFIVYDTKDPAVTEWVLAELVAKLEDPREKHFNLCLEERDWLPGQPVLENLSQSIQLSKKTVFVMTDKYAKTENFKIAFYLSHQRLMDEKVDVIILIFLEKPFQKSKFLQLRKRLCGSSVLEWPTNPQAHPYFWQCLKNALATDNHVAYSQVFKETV
As to the kind of experiment: TLR7 inhibition reporter assay (HEK-Blue SEAP reporter, gardiquimod stimulation). Particulars: HEK-Blue cells overexpressing human TLR7, SEAP reporter, gardiquimod 7.5 μM, 22 hour incubation. The method, boiled down:
(§1)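 HEK-Blue cells overexpressing human TLR7, TLR8 or TLR9 carry a SEAP reporter driven by NF-κB/AP-1 sites. Compounds (0.05 nM–50 μM) were preincubated 30 min at room temperature, then cells were stimulated with gardiquimod 7.5 μM (TLR7), R848 15.9 μM (TLR8) or ODN2006 5 nM (TLR9) for 22 h at 37 °C.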

The next test concerns the target T2, human TLR8 (Homo sapiens, UniProt Q9NR97).
T2 construct: host or cells: HEK-Blue cells
T2 sequence (Q9NR97 27-1041): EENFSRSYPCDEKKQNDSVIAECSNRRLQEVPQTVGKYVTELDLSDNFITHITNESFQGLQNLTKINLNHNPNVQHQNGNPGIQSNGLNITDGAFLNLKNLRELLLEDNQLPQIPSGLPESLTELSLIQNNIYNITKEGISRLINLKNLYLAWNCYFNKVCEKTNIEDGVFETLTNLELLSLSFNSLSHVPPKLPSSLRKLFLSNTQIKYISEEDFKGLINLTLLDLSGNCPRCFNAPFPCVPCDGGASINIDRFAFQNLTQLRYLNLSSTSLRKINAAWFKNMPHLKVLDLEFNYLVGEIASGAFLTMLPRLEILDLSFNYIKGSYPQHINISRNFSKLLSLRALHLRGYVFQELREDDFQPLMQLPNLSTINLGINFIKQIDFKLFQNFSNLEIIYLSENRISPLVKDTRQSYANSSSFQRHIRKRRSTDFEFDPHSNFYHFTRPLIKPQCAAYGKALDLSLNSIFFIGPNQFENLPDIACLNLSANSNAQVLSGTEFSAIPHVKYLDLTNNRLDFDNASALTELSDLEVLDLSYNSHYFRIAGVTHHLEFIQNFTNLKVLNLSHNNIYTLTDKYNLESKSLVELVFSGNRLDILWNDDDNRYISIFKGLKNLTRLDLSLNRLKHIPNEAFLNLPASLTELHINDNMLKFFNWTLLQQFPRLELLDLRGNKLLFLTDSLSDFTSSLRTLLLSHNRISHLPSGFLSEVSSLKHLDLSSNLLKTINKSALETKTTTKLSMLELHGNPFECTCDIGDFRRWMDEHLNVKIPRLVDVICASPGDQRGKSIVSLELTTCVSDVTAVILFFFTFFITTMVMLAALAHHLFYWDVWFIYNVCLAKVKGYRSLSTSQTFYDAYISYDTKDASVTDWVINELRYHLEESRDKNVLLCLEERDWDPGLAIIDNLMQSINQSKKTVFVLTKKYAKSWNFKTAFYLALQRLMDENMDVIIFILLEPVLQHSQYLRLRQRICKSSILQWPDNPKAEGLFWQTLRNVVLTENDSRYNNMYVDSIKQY
In words: TLR8 inhibition reporter assay (HEK-Blue SEAP reporter, R848 stimulation). The conditions noted are these: HEK-Blue cells overexpressing human TLR8, SEAP reporter, R848 15.9 μM, 22 hour incubation. Summed up:
as §1
A general note: Reporter assays use an easily measured gene product as a stand-in for the process of interest.

For a further test, the target named is T3, human TLR9 (Homo sapiens, UniProt Q9NR96).
T3 construct: host or cells: HEK-Blue cells
T3 sequence (Q9NR96 26-1032): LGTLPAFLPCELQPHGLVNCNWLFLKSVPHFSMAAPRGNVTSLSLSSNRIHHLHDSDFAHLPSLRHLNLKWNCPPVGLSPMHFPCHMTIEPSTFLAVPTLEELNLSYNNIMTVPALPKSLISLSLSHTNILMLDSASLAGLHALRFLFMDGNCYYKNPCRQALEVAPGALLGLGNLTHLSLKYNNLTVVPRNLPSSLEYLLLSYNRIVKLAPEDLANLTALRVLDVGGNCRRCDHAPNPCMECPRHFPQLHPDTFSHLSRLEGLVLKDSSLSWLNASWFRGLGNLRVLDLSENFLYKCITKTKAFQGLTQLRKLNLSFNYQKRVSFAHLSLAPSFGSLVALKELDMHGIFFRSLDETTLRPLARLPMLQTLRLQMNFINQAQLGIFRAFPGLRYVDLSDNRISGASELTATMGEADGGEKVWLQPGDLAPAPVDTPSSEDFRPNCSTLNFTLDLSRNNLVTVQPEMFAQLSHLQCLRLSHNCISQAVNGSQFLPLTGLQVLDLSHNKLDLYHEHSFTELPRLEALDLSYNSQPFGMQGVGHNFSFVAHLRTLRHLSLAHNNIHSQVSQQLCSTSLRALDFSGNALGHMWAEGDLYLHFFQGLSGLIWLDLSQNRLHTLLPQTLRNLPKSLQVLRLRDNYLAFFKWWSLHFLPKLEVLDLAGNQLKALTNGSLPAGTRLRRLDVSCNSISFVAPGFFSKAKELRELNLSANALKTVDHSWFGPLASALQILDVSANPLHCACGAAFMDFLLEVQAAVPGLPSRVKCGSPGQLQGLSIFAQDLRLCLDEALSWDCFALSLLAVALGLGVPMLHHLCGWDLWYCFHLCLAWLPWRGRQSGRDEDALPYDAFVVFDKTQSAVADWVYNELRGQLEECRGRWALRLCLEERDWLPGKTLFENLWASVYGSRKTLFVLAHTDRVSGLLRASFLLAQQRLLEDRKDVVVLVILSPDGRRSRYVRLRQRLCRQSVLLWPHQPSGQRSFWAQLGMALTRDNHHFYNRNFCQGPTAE
In words: TLR9 inhibition reporter assay (HEK-Blue SEAP reporter, ODN2006 stimulation). The conditions noted are these: HEK-Blue cells overexpressing human TLR9, SEAP reporter, ODN2006 5 nM, 22 hour incubation. The procedure:
TLR7/8/9 Inhibition Reporter Assays
HEK-Blue™-cells (Invivogen) overexpressing human TLR7, TLR8 or TLR9 receptors were used for screening inhibitors of these receptors using an inducible SEAP (secreted embryonic alkaline phosphatase) reporter gene under the control of the IFN-β minimal promoter fused to five NF-κB and AP-1-binding sites. Briefly, cells are seeded into Greiner 384 well plates (15000 cells per well for TLR7, 20,000 for TLR8 and 25,000 for TLR9) and then treated with test compounds in DMSO to yield a final dose response concentration range of 0.05 nM-50 μM. After a 30 minute compound pre-treatment at room temperature, the cells are then stimulated with a TLR7 ligand (gardiquimod at a final concentration of 7.5 μM), TLR8 ligand (R848 at a final concentration of 15.9 μM) or TLR9 ligand (ODN2006 at a final concentration of 5 nM) to activate NF-κB and AP-1 which induce the production of SEAP. After a 22 hour incubation at 37° C., 5% CO2, SEAP levels are determined with the addition of HEK-Blue™ Detection reagent (Invivogen), a cell culture medium that allows for detection of SEAP, according to manufacturer's specifications. The percent inhibition is determined as the % reduction in the HEK-Blue signal present in wells treated with agonist plus DMSO alone compared to wells treated with a known inhibitor.

As for `COCCn1cc(-c2[nH]c3ccc(C4CCN(C5CCOCC5)CC4)cc3c2C(C)C)cc(C)c1=O` [Example 261, 5-(3-isopropyl-5-(1-(tetrahydro-2H-pyran-4-yl)piperidin-4-yl)-1H-indol-2-yl)-1-(2-methoxyethyl)-3-methylpyridin-2(1H)-one], the IC50 at human TLR7 stood at 8.8 nM; against human TLR8 it was 7.1 nM; on human TLR9, 3360 nM.

For `COc1cc(-c2[nH]c3ccc(C4CCN(C5CCOCC5)CC4)cc3c2C(C)C)cn(C)c1=O` [Example 201, 5-(3-isopropyl-5-(1-(tetrahydro-2H-pyran-4-yl)piperidin-4-yl)-1H-indol-2-yl)-3-methoxy-1-methylpyridin-2(1H)-one], the IC50 against human TLR7 came out at 4 nM; against human TLR8 it was 4.4 nM; against human TLR9, 959 nM.

In the case of `CC(C)c1c(-c2ccc(=O)n(CC(N)=O)c2)[nH]c2ccc(C3CCNCC3)cc12` [Example 49, 2-(5-(3-isopropyl-5-(piperidin-4-yl)-1H-indol-2-yl)-2-oxopyridin-1(2H)-yl)acetamide], the figures for the IC50 on human TLR7, against human TLR8 and on human TLR9 were 2610 nM, 2090 nM and at least 50000 nM, respectively.

For the compound `Cc1cc(-c2[nH]c3ccc(C4CCN(C5CC(C)OC5=O)CC4)cc3c2C(C)C)cn(C)c1=O` (stereo not drawn) [Example 149, 5-(3-isopropyl-5-(1-(5-methyl-2-oxotetrahydrofuran-3-yl)piperidin-4-yl)-1H-indol-2-yl)-1,3-dimethylpyridin-2(1H)-one], the figures for the IC50 against human TLR7, against human TLR8 and against human TLR9 were 16 nM, 27.3 nM and 23200 nM, respectively.

For `Cc1cc(-c2[nH]c3ccc(C4CCN(C(=O)CN(C)C)CC4)cc3c2C(C)C)c(C)n(C)c1=O` [Example 279, 5-(5-(1-(dimethylglycyl)piperidin-4-yl)-3-isopropyl-1H-indol-2-yl)-1,3,6-trimethylpyridin-2(1H)-one], the figures for the IC50 on human TLR7, against human TLR8 and against human TLR9 were 23.1 nM, 5.9 nM and 7060 nM, respectively.

As to `Cc1cc(-c2[nH]c3ccc(C4CCN(CC(C)(C)O)CC4)cc3c2C(C)C)c(C)n(C)c1=O` [Example 316, 5-(5-(1-(2-hydroxy-2-methylpropyl)piperidin-4-yl)-3-isopropyl-1H-indol-2-yl)-1,3,6-trimethylpyridin-2(1H)-one], the IC50 on human TLR7 was 10.2 nM; on human TLR8, 1.9 nM; at human TLR9, 3090 nM.

As to `CC(C)c1c(-c2cc(-c3cccnc3)c(=O)n(C)c2)[nH]c2ccc(C3CCN(C)CC3)cc12` [Example 247, 5-(3-isopropyl-5-(1-methylpiperidin-4-yl)-1H-indol-2-yl)-1-methyl-[3,3′-bipyridin]-2(1H)-one], the IC50 at human TLR7 is 3 nM; against human TLR8 it was 4.1 nM; at human TLR9 it was 864 nM.

In the case of `CC(C)c1c(-c2cc(-c3cncnc3)c(=O)n(C)c2)[nH]c2ccc(C3CCN(CCS(C)(=O)=O)CC3)cc12` [Example 108, 5-(3-isopropyl-5-(1-(2-(methylsulfonyl)ethyl)piperidin-4-yl)-1H-indol-2-yl)-1-methyl-3-(pyrimidin-5-yl) pyridin-2(1H)-one], the IC50 amounted to 32.8 nM against human TLR7, 2 nM against human TLR8 and 7540 nM against human TLR9.

Regarding `CC(C)c1c(-c2cc(-c3cncnc3)c(=O)n(C)c2)[nH]c2ccc(C3CCN(CC4CCOC4)CC3)cc12` (stereo not drawn) [Example 257, 5-(3-isopropyl-5-(1-((tetrahydrofuran-3-yl)methyl)piperidin-4-yl)-1H-indol-2-yl)-1-methyl-3-(pyrimidin-5-yl)pyridin-2(1H)-one], the IC50 was 15.6 nM at human TLR7, 1.1 nM on human TLR8 and 1980 nM against human TLR9.

For `Cc1cc(-c2[nH]c3ccc(C4CCNCC4)cc3c2C(C)C)cn(CC(F)F)c1=O` [Example 40, 1-(2,2-difluoroethyl)-5-(3-isopropyl-5-(piperidin-4-yl)-1H-indol-2-yl)-3-methylpyridin-2(1H)-one], the figures for the IC50 against human TLR7, at human TLR8 and on human TLR9 were 5.2 nM, 16.9 nM and 4450 nM, respectively.

As a reminder, the IC50 is the midpoint of a concentration-inhibition curve.
